Structures can show the parent of a compound that is named as a salt.
tested on: NCI-H292 lung cancer cells; test: FDA drug screening, complete media vs cholesterol-free media with simvastatin (TABLE 2); assay type: cell-based, human; conditions: NCI-H292 cells, cholesterol-free media with simvastatin 0.04 μM; FDA drug library screen (TABLE 2)

Going from `CC(C)OC(=O)CCC/C=C\C[C@@H]1[C@@H](/C=C/[C@@H](O)COc2cccc(C(F)(F)F)c2)[C@H](O)C[C@@H]1O` [Travoprost] to `C[C@]12C=CC(=O)C=C1CC[C@H]1[C@@H]3C[C@@H](O)[C@](O)(C(=O)CO)[C@@]3(C)C[C@H](O)[C@@]12F` [Triamcinolone], the “Cholesterol-free media + simvastatin (0.04 μM)” value rises from 0.9352 to 1.201.

same assay, conditions: NCI-H292 cells, cholesterol-free media with simvastatin 0.04 μM; cell growth value in FDA drug screen

Going from `Cc1c(Cl)cccc1Nc1ccccc1C(=O)O` [Tolfenamic Acid] to `CC(=O)Nc1cccc(-n2c(=O)n(C3CC3)c(=O)c3c(Nc4ccc(I)cc4F)n(C)c(=O)c(C)c32)c1` [Trametinib], the “Cholesterol-free media + simvastatin (0.04 μM)” value falls from 0.9725 to 0.2423.

First: Cc1ccc(C(=O)C(C)CN2CCCCC2)cc1 (centres unmarked) [Tolperisone (hydrochloride)]
Second: Cn1c(=O)cc(N2CCC[C@@H](N)C2)n(Cc2cc(F)ccc2C#N)c1=O [Trelagliptin]
The “Cholesterol-free media + simvastatin (0.04 μM)” value of the first is lower: 0.9156 for the first, 1.142 for the second.

In the case of `CC1(C)O[C@@H]2[C@@H](CO[C@@]3(COS(N)(=O)=O)OC(C)(C)O[C@@H]23)O1` [Topiramate], the “Cholesterol-free media + simvastatin (0.04 μM)” value is reported as 1.666.

same assay, conditions: NCI-H292 cells, complete media; FDA drug library screen (TABLE 2)

For `CC(C)OC(=O)CCC/C=C\C[C@@H]1[C@@H](/C=C/[C@@H](O)COc2cccc(C(F)(F)F)c2)[C@H](O)C[C@@H]1O` [Travoprost], the “Complete Media” value was 0.8818.

same assay, conditions: NCI-H292 cells, complete media; cell growth value in FDA drug screen

First: Cc1c(Cl)cccc1Nc1ccccc1C(=O)O [Tolfenamic Acid]
Second: CC(=O)Nc1cccc(-n2c(=O)n(C3CC3)c(=O)c3c(Nc4ccc(I)cc4F)n(C)c(=O)c(C)c32)c1 [Trametinib]
The “Complete Media” value of the first is higher: 0.9986 for the first, 0.2586 for the second.

Compared with `Cc1ccc(C(=O)C(C)CN2CCCCC2)cc1` (centres unmarked) [Tolperisone (hydrochloride)], `Cn1c(=O)cc(N2CCC[C@@H](N)C2)n(Cc2cc(F)ccc2C#N)c1=O` [Trelagliptin] is higher in “Complete Media” value: 0.9664 for the first, 1.234 for the second.

`CC1(C)O[C@@H]2[C@@H](CO[C@@]3(COS(N)(=O)=O)OC(C)(C)O[C@@H]23)O1` [Topiramate] was tested, and the “Complete Media” value was 1.706.

same assay, conditions: complete media minus cholesterol-free media + simvastatin (0.04 μM); >0 enhanced anti-cancer activity, about 0 neutral, <0 antagonist

Compared with `CC(C)OC(=O)CCC/C=C\C[C@@H]1[C@@H](/C=C/[C@@H](O)COc2cccc(C(F)(F)F)c2)[C@H](O)C[C@@H]1O` [Travoprost], `C[C@]12C=CC(=O)C=C1CC[C@H]1[C@@H]3C[C@@H](O)[C@](O)(C(=O)CO)[C@@]3(C)C[C@H](O)[C@@]12F` [Triamcinolone] is higher in Difference: −0.05 for the first, −0.04 for the second.

same assay, conditions: complete media minus cholesterol-free media + simvastatin; >0 enhanced anti-cancer activity, about 0 neutral, <0 antagonist

First: Cc1c(Cl)cccc1Nc1ccccc1C(=O)O [Tolfenamic Acid]
Second: CC(=O)Nc1cccc(-n2c(=O)n(C3CC3)c(=O)c3c(Nc4ccc(I)cc4F)n(C)c(=O)c(C)c32)c1 [Trametinib]
The Difference of the first is higher: 0.03 for the first, 0.02 for the second.

Going from `Cc1ccc(C(=O)C(C)CN2CCCCC2)cc1` (centres unmarked) [Tolperisone (hydrochloride)] to `Cn1c(=O)cc(N2CCC[C@@H](N)C2)n(Cc2cc(F)ccc2C#N)c1=O` [Trelagliptin], the Difference rises from 0.05 to 0.09.

With `CC1(C)O[C@@H]2[C@@H](CO[C@@]3(COS(N)(=O)=O)OC(C)(C)O[C@@H]23)O1` [Topiramate] the Difference was 0.04.

tested on: NCI-H292 lung cancer cells; test: FDA drug screening, complete media vs cholesterol-free media without statin (TABLE 1); assay type: cell-based, human; conditions: Complete minus Cholesterol-free; >0 enhanced anti-cancer activity, about 0 neutral, <0 antagonist

First: Cc1ccc(C(=O)C(C)CN2CCCCC2)cc1 (centres unmarked) [Tolperisone (hydrochloride)]
Second: Cn1c(=O)cc(N2CCC[C@@H](N)C2)n(Cc2cc(F)ccc2C#N)c1=O [Trelagliptin]
The Difference of the first is higher: 0.07 for the first, −0.22 for the second.

Compared with `CC(=O)Nc1cccc(-n2c(=O)n(C3CC3)c(=O)c3c(Nc4ccc(I)cc4F)n(C)c(=O)c(C)c32)c1` [Trametinib], `C[C@]12C=CC(=O)C=C1CC[C@H]1[C@@H]3C[C@@H](O)[C@](O)(C(=O)CO)[C@@]3(C)C[C@H](O)[C@@]12F` [Triamcinolone] is lower in Difference: −0.06 for the first, −0.27 for the second.

same assay, conditions: Complete minus Cholesterol-free; greater than 0 enhanced anti-cancer activity, about 0 neutral, below 0 antagonists

`CC(C)OC(=O)CCC/C=C\C[C@@H]1[C@@H](/C=C/[C@@H](O)COc2cccc(C(F)(F)F)c2)[C@H](O)C[C@@H]1O` [Travoprost] was tested, and the Difference was −1.01.

same assay, conditions: NCI-H292 cells in cholesterol-free media without statin

In the case of `CC(C)OC(=O)CCC/C=C\C[C@@H]1[C@@H](/C=C/[C@@H](O)COc2cccc(C(F)(F)F)c2)[C@H](O)C[C@@H]1O` [Travoprost], the Cholesterol-free is reported as 1.92.

same assay, conditions: NCI-H292 cells in complete media

`CC(C)OC(=O)CCC/C=C\C[C@@H]1[C@@H](/C=C/[C@@H](O)COc2cccc(C(F)(F)F)c2)[C@H](O)C[C@@H]1O` [Travoprost] showed a Complete of 0.9075.

same assay, conditions: NCI-H292 cells, cholesterol-free media without statin

Going from `Cc1c(Cl)cccc1Nc1ccccc1C(=O)O` [Tolfenamic Acid] to `Cn1c(=O)cc(N2CCC[C@@H](N)C2)n(Cc2cc(F)ccc2C#N)c1=O` [Trelagliptin], the Cholesterol-free falls from 1.332 to 0.9224.

First: CC1(C)O[C@@H]2[C@@H](CO[C@@]3(COS(N)(=O)=O)OC(C)(C)O[C@@H]23)O1 [Topiramate]
Second: C[C@]12C=CC(=O)C=C1CC[C@H]1[C@@H]3C[C@@H](O)[C@](O)(C(=O)CO)[C@@]3(C)C[C@H](O)[C@@]12F [Triamcinolone]
The Cholesterol-free of the first is higher: 1.406 for the first, 0.8896 for the second.

same assay, conditions: NCI-H292 cells, cholesterol-free media without statin, FDA drug library screen

First: Cc1ccc(C(=O)C(C)CN2CCCCC2)cc1 (centres unmarked) [Tolperisone (hydrochloride)]
Second: CC(=O)Nc1cccc(-n2c(=O)n(C3CC3)c(=O)c3c(Nc4ccc(I)cc4F)n(C)c(=O)c(C)c32)c1 [Trametinib]
The Cholesterol-free of the first is higher: 1.37 for the first, 0.4164 for the second.

same assay, conditions: NCI-H292 cells, complete media

Compared with `Cc1c(Cl)cccc1Nc1ccccc1C(=O)O` [Tolfenamic Acid], `Cn1c(=O)cc(N2CCC[C@@H](N)C2)n(Cc2cc(F)ccc2C#N)c1=O` [Trelagliptin] is lower in Complete: 0.9309 for the first, 0.705 for the second.

Going from `CC1(C)O[C@@H]2[C@@H](CO[C@@]3(COS(N)(=O)=O)OC(C)(C)O[C@@H]23)O1` [Topiramate] to `C[C@]12C=CC(=O)C=C1CC[C@H]1[C@@H]3C[C@@H](O)[C@](O)(C(=O)CO)[C@@]3(C)C[C@H](O)[C@@]12F` [Triamcinolone], the Complete falls from 0.9724 to 0.6155.

same assay, conditions: NCI-H292 cells, complete media, FDA drug library screen

Going from `Cc1ccc(C(=O)C(C)CN2CCCCC2)cc1` (centres unmarked) [Tolperisone (hydrochloride)] to `CC(=O)Nc1cccc(-n2c(=O)n(C3CC3)c(=O)c3c(Nc4ccc(I)cc4F)n(C)c(=O)c(C)c32)c1` [Trametinib], the Complete falls from 1.436 to 0.3595.

same assay, conditions: complete vs cholesterol-free media; greater than 0 enhanced anti-cancer activity, about 0 neutral, below 0 antagonists

First: Cc1c(Cl)cccc1Nc1ccccc1C(=O)O [Tolfenamic Acid]
Second: CC1(C)O[C@@H]2[C@@H](CO[C@@]3(COS(N)(=O)=O)OC(C)(C)O[C@@H]23)O1 [Topiramate]
The Difference of the first is higher: −0.40 for the first, −0.43 for the second.

Source: patent publication US20250144067A1, “PERSONALIZED STARVATION THERAPY FOR CANCER” (Faeth Therapeutics, Inc., priority 2021, published 2025)
